Assay results taken from patent US5593970A, “Heterocyclic anthracycline analogs” (priority 1994, dated 1997).
Read-outs that look alike come from different tables or passages of the source.

Columns and labels:
BE-1 = test: Soft agar colony formation disk diffusion assay; type: cell-based, human
Source text: (§1) A more elaborate version of this fundamental assay, the soft agar colony formation disk diffusion assay was used. This assay defines the relative activity of one particular drug versus a tumoral cell line type. The effect of the test drug against tumoral cells could be measured by its inhibitory capacity against colony formation after the delivery of the compound, in different concentrations on an filter disk(4). A modified technique of this assay was used in order to investigate the antiproliferative activity of candidate compounds. Tumoral cells from solid tumors and ascitic lines were plated separately in a two layer agar matrix. Cell lines to be tested were suspended in an upper layer of 0.4% Noble agar (Difco#00142-01) in RPMI-1066 (Gibco#3201875) at a yield varying between 10^4 to 2×10^5 cells per 60 mm Petri dish. Plating efficiency was determined for each line in order to achieve an optimal number of colonies per dish. Plates were examined before drug administration to confirm a uniform dispersion of single cells. The bottom layer consisted of 0.8% Noble agar, 0.8% Tryptic Soy Broth (difco#0037001)in CMRL-1066/Fischer's. The bottom layers were used within 2 and 9 days of preparation. Plated dishes (bottom layer of agar, upper layer of cells and administered drug were incubated in humidified atmosphere at 37° C., 5% CO2 for 10-20 days depending upon the time necessary to observe adequate colonies (defined as a cell aggregate of more than 50 cells) both control and drug inhibited. Drugs were administered on a paper filter disk (Whatman No. 1) of 6.5 mm diameter placed on the upper layer at 1/3 distance from the edge of the dish. The anti-clonogenic activity of the compounds was measured as the zone of inhibition from the disk edge to the most proximal colonies. This zone of inhibition was checked on an inverted microscope (40×) and was measured with a micrometer mounted in the eyepiece. The ocular micrometer was calibrated with a stage micrometer set for a particular combination of ocular and objective lenses. […] We made a modification of the initial technique by not plating a solid tumor and a leukemia simultaneously in the same Petri dish. Anti-clonogenic tests performed on leukemia cell line have helped in the discovery of the majority of current clinically used cytostatic drugs. Our tests on solid tumor lines (animal or human) may help define active compounds with solid tumor specificity. […] HUMAN TUMORS. […] LS180 (13) and BE1(14) were obtained from the Oncology Dept. of the Montreal General Hospital. […] Cell lines were routinely passaged twice a week by trypsinization and maintained in 25, or 75-sq. cm Falcon Plastic flasks at 37° C., 5% CO2 in humidified atmosphere. Both compounds were dissolved in DMSO (1 mg/100 ul) and brought to final volume (250 ul) with Millipore deionized sterile water. Further dilutions were made with […] volume of 25 ul of freshly prepared solution was placed on the filter disk and allowed to dry.

MCF7 = test: Soft agar colony formation disk diffusion assay; type: cell-based, human
Source text: as §1

LS180 = test: Soft agar colony formation disk diffusion assay; type: cell-based, human
Source text: as §1

MCF7/ADR = test: Soft agar colony formation disk diffusion assay; type: cell-based, human
Source text: as §1

CNS = test: NCI assay, average per cancer type; details: Homo sapiens; for CC50: 48 h, read-out: Average LOG10 LC50; for GI50: read-out: Average LOG10 GI50
Colon = test: NCI assay, average per cancer type; details: Homo sapiens; for CC50: 48 h, read-out: Average LOG10 LC50; for GI50: read-out: Average LOG10 GI50
Melanoma = test: NCI assay, average per cancer type; details: Homo sapiens; for CC50: 48 h, read-out: Average LOG10 LC50; for GI50: read-out: Average LOG10 GI50
SC Lung = test: NCI assay, average per cancer type; details: Homo sapiens; for CC50: 48 h, read-out: Average LOG10 LC50; for GI50: read-out: Average LOG10 GI50
Ovarian = test: NCI assay, average per cancer type; details: Homo sapiens; for CC50: 48 h, read-out: Average LOG10 LC50; for GI50: read-out: Average LOG10 GI50
Renal = test: NCI assay, average per cancer type; details: Homo sapiens; for CC50: 48 h, read-out: Average LOG10 LC50; for GI50: read-out: Average LOG10 GI50
LOX = test: Microculture tetrazolium assay; type: cell-based; details: read-out: IC50
HT29 = test: Microculture tetrazolium assay; type: cell-based; details: read-out: IC50

SMILES	zone of inhibition (BE-1; 100 μg/DISK) [Zone Units]	zone of inhibition (MCF7; 100 μg/DISK) [Zone Units]	zone of inhibition (LS180; 100 μg/DISK) [Zone Units]	zone of inhibition (MCF7/ADR; 100 μg/DISK) [Zone Units]	CC50 (CNS) [µM]	GI50 (CNS) [µM]	CC50 (Colon) [µM]	GI50 (Colon) [µM]	CC50 (Melanoma) [µM]	GI50 (Melanoma) [µM]	CC50 (SC Lung) [µM]	GI50 (SC Lung) [µM]	CC50 (Ovarian) [µM]	GI50 (Ovarian) [µM]	CC50 (Renal) [µM]	zone of inhibition (MCF7; 10 μg/DISK) [Zone Units]	zone of inhibition (LS180; 10 μg/DISK) [Zone Units]	zone of inhibition (MCF7/ADR; 10 μg/DISK) [Zone Units]	IC50 (LOX) [µM]	IC50 (HT29; Homo sapiens, HT-29, HT29) [µM]	other results
CCOC(=O)C1CC2=C(CO1)C(=O)c1cc3ccccc3c(O)c1C2=O (centres unmarked) [BCH-653, Ethyl(6 and 11 hydroxy-5,12-dioxo-3,4,5,12-tetrahydro-anthraceno[2,3-c]pyran-3-yl)]formate]	76.2 ± 21.5	106.1 ± 21.5	35.5 ± 0.7	91.5 ± 43.1	> 100	50.1	> 100	35.5	> 100	33.1	> 100	28.8	> 100	38	> 100	–	–	–	–	–	GI50 (Renal): 57.5 µM
CCOC(=O)C1CC2=C(CO1)C(=O)c1c(c(O)c3ccccc3c1OC(C)=O)C2=O (centres unmarked) [BCH-654, Ethyl[11-acetoxy-6-hydroxy-5,12-dioxo-3,4,5,12-tetrahydroanthraceno(2,3-c)pyran-3-yl]formate]	153.0 ± 1.4	115.9 ± 8.6	158.5 ± 9.1	155.6 ± 12.7	–	–	–	–	–	–	–	–	–	–	–	0	24.4 ± 8.6	0	70.5	47.3	zone of inhibition (BE-1; 10 μg/DISK): 24.4 ± 8.6 Zone Units
CCOC(=O)[C@@H]1CC2=C(C(=O)c3cc4ccccc4c(O)c3C2=O)[C@@H](O[C@H]2C[C@H](NC(=O)C(F)(F)F)[C@H](O)[C@H](C)O2)O1 [BCH-681, (1'S,1R,3S)Ethyl[6-hydroxy-5,12-dioxo-1-(3'-trifuloroacetamido-1-daunosaminyl)-3,4,5,12-tetrahydroanthraceno(2,3-C)pyran-3-yl]formate]	–	–	–	326.3 ± 56.0	22.4	2.88	7.24	1.41	5.01	1.12	6.61	1.7	16.6	2.69	21.9	–	–	82.7 ± 30.1	4.89	1.72	GI50 (Renal): 3.02 µM
C=CC1CC2=C(C(=O)c3cc4ccccc4c(O)c3C2=O)C(OC)O1 (centres unmarked) [BCH-712, 6-hydroxy-1-methoxy-1,2,3,4-tetrahydro-3-vinyl-(2-oxygen) naphthacene-5,12-dione]	–	54.5 ± 9.1	158.0 ± 34.6	79.0 ± 8.4	–	–	–	–	–	–	–	–	–	–	–	0	9.0 ± 4.2	24.0 ± 8.4	–	–	cross resistance with adriamycin, MCF7/ADR vs MCF7 (MCF7/ADR): more active in the adriamycin resistant cell line
CCOC(=O)C1Cc2c(c(OC)c3c(c2OC)C(=O)c2ccccc2C3=O)CS1 (centres unmarked) [BCH-717]	–	0	61.0 ± 0.0	0	–	–	–	–	–	–	–	–	–	–	–	0	0	0	> 100	> 100	–
CC(=O)Oc1c2c(c(O)c3ccccc13)C(=O)C1=C(CC(C(C)=O)OC1)C2=O (centres unmarked) [BCH-721]	–	167.0 ± 21.9	122.0 ± 0.0	183.0 ± 86.2	–	–	–	–	–	–	–	–	–	–	–	55.0 ± 8.4	18.9	91.0 ± 86.2	24.9	–	IC50 (HT29; HT29): 23.4 µM
